The target of data set [1] is T1, ERK2 (MAPK1) (Homo sapiens, UniProt P28482).
T1 construct: purchased Life technologies
In words: ERK2 (MAPK1) enzymatic assay (Z′-Lyte). The format is biochemical. On the procedure:
To assess the capacity of compounds to inhibit ERK2 enzymatic activity, Z′-Lyte biochemical assay from Life technologies was used according to manufacturer's instructions. Briefly, black 384-well plates containing 100 nl of 100× compound solution in 100% DMSO, 2.4 μl kinase buffer, 5 μl 2×MAPK1 (ERK2)/Ser/Thr 03 mixture and 2.5 μl 4×ATP solution were used. Plates were shaken for 30 seconds and incubated for 60 minutes at room temperature. Then, 5 μl of a 1:1024 dilution of Development Reagent A was added. Plates were shaken for 30 seconds and incubated for 60 minutes at room temperature. A plate reader was used to read fluorescence. […] Kinase buffer consisted of 50 mM HEPES pH 7.5, 0.01% BRIJ-35, 10 mM MgCl2, 1 mM EGTA.

Data set [2] concerns A375 cells (malignant melanoma). In words: Cell line proliferation assay (MTT, A375). The format is cell-based. The settings on record: Homo sapiens, A-375, 72 hours. As for the experimental part: A cell line assay was used to determine the capacity of compounds to inhibit cell proliferation. A375 cells (malignant melanoma) were grown to near 80% confluence and seeded at 3000 cells per 100 μl per well in DMEM with 10% FBS in 96-well flat bottom plates. Cells were incubated for 24 hours at 37° C. under 5% CO2. 100 μl compound solutions were added to cells and incubated for 72 hours at 37° C. Total volume of media was 200 μl per well. Compounds were screened in 0.15% DMSO (final) using 10 titration points in duplicate. Negative control wells consisted of vehicle only (0.15% DMSO in 10% FBS DMEM). After 72 hours of compound treatment, SDS 1% (final) was added to positive control wells for 15 minutes at 37° C. Then, medium was discarded and replaced by 100 μl per well of a MTT solution (3-[4.5-dimethylthiazol-2-yl]-2.5-diphenyltetrazolium bromide) (Sigma, Cat #M5655) at 0.5 mg/ml in 10% FBS DMEM. Cells were incubated for 4 hours at 37° C. MTT reaction was stopped and homogenized by the addition of 100 μl per well of SDS 10% 0.01M HCl. After 16 hours at 37° C., absorbance was measured at 570 nm in a Bio-Tek plate reader (PowerWave HT). […] Analysis was performed using GraphPad Prism software.

In data set [3] the target is 58 kinases. In words: Kinase panel (Z′-Lyte, Adapta/Lanthascreen), 58 kinases. The class given is biochemical. The settings on record: for Kinase panel @500 nM hits > 50%: number of the 58 kinases inhibited more than 50% at 500 nM; for Kinase panel @500 nM hits > 80%: number of the 58 kinases inhibited more than 80% at 500 nM. As for the experimental part: To assess the kinase selectivity of compounds, Z′-Lyte biochemical assay, and Adapta/Lanthascreen binding assays from Life technologies were used according to manufacturer's instructions. Pourcentages of inhibition at 500 nM of test compounds were performed towards 58 kinases: ABL1, ACVR1B (ALK4), AKT2 (PKB beta), AMPK (A1/132/G3), AURKA (Aurora A), AXL, BRAF, BTK, CAMK2B (CaMKII beta), CDK2/cyclin A, CHEK1 (CHK1), CLK1, CSNK1A1 (CK1 alpha 1), CSNK2A1 (CK2 alpha 1), DAPK3 (ZIPK), DYRK1A, EGFR (ErbB1), EPHB3, ERBB2 (HER2), FGFR2, FLT3, FRAP1 (mTOR), GSK3B (GSK3 beta), IGF1R, IKBKB (IKK beta), INSR, IRAK4, JAK2, KDR (VEGFR2), KIT, LCK, MAP2K1 (MEK1), MAPK10 (JNK3), MAPK11 (p38 beta), MAPKAPK2, MARK2, MET (cMet), NEK2, NTRK1 (TRKA), PAK2 (PAK65), PDGFRB (PDGFR beta), PDK1 Direct, PHKG2, PIK3CA/PIK3R1 (p110 alpha/p85 alpha), PIM1, PLK1, PRKACA (PKA), PRKCA (PKC alpha), PTK2 (FAK), RET, ROCK1, RPS6KA1 (RSK1), RPS6KB1 (p70S6K), SRC, STK3 (MST2), SYK, TEK (Tie2), TYRO3 (RSE).

For data set [4], the target named is T2, hERG channel (Homo sapiens, UniProt Q12809).
T2 construct: a Chinese Hamster Ovary cell line stably expressing the full-length ion channel; expressed in transfected cells; host or cells: Chinese Hamster Ovary cell line
The data set is described as follows: hERG channel inhibition assay (patch clamp). The settings on record: whole-cell patch clamp, CHO cell line expressing hERG. The format is cell-based. (hERG is a cardiac potassium channel; its block is linked to QT prolongation.)
Experimental: Compounds were used as a 10 mM stock in DMSO before dilution in HEPES-buffered saline to 30 μM. 6-point concentration-response curves were generated using 3.16-fold serial dilutions from the top test concentration. Electrophysiological recordings were made from a Chinese Hamster Ovary cell line stably expressing the full-length ion channel. Single cell ionic currents were measured in whole-cell configuration at room temperature (21-23° C.) using a Patchliner (Nanion Technologies). The internal solution for hERG contained (mM): 120 KF, 20 KCl, 10 EGTA, 10 HEPES and was buffered to pH 7.3. The external solution (HEPES-buffered saline, HEPES-buffered saline) contained (mM): 138 NaCl, 4.5 KCl, 1.8 CaCl2), 1.0 MgCl2, 10 HEPES, 10 glucose, buffered to pH 7.4. […] Currents were measured from the step and referenced to the holding current. Compounds were then incubated for 2 minutes to achieve steady state prior to addition of the next concentration.

Data set [5] addresses T3, CYP 3A4 (Homo sapiens, UniProt P08684).
T3 construct: endogenous in cells; host or cells: cryopreserved human hepatocytes
The data set is described as follows: CYP 3A4 inhibition assay in human hepatocytes. The format is in vitro ADME. The conditions noted are these: cryopreserved human hepatocytes, midazolam probe substrate, 10 min. On the procedure:
To assess the capacity of compounds to inhibit CYP 3A4 enzymatic activity, the test compounds (0.1 μM-25 μM) were incubated with cryopreserved human hepatocytes for 10 min in the presence of the specific CYP3A4 probe substrate, midazolam. 1-Hydroxymidazolam was monitored by LC-MS/MS and a decrease in the formation of the metabolite compared to the vehicle control was used to calculate an IC50 value.

Data set [6] in a line: PK experiments in mice. The format is in vivo. The conditions noted are these: mouse, plasma, male BalbC mice, @20 mpk PO, @1 mpk IV. As for the experimental part: For intravenous injection, a single 1 mg/kg dose was injected in tail vein and blood was collected at 0.12, 0.25, 0.5, 1, 2, 4, 8 and 24 h after injection. For oral route, a single 20 mg/kg dose was administered, and blood was collected at 0.25, 0.5, 1, 2, 4, 8, 10 and 24 h after gavage. Plasma separated from blood samples was stored at −20° C. until analysis. Vials containing the study samples were retrieved and thawed to room temperature. A volume of 50 μl of sample was added to 200 μl of acetronitrile containing internal standard (tolbutamide; 25 ng/mL) and vortexed for 5 min and centrifuged at 14000 rpm for 5 min at 4° C. 200 μl of supernatant was separated and transferred to HPLC vial for analysis. For prodrug pharmacokinetics, only parent drug was dosed by HPLC.

Data set [7] concerns Caco 2 cell lines. The settings on record: Caco-2, pH 7.4.
Experimental: Caco 2 cell lines were used for the in vitro transport studies and were obtained from ATCC. Cells were split every other day at a split ratio of 1:3-1:5 and grown in Dulbecco's Modified Eagle Medium (GlutaMAX I, 4,500 mg/L D-glucose, sodium pyruvate.) supplemented with 10% FBS in the presence of antibiotics. For transport studies, cells were seeded onto polycarbonate Transwell filter membranes (Millipore) at a density of 60,000 cells/well. After 24 h post seeding, changed medium and cultured for another 21 days before transport experiments. For transport studies, donor solutions were prepared by diluting the stock solutions of test compounds in transport medium (HBSS buffer with 10 mM HEPES, pH 7.4). Receiver solutions were the same HBSS buffer with 10 mM HEPES, pH 7.4. The transport of test compounds (5 μM) was measured in duplicate in two directions [apical to basolateral (A→B) and basolateral to apical (B→A)].
The permeability coefficient for membrane transport of test compounds was determined using the following equation: Papp (cm/sec)=(Vr/CO) (1/S) (dC/dt); Papp=apparent permeability, Vr=volume of medium in the receiver chamber, CO=PAR of the test drug in the receiver chamber, S=surface area of monolayer, dC/dt=drug PAR in the receiver chamber with time). Efflux Ratio was defined as: Efflux Ratio=Papp B-A/Papp A-B Bioanalysis was done on LC-MS/MS.

pIC50: −log10 of the molar value. Several values for one entry are separate records, joined by “and”; a condition that tells them apart may be missing. Equal values may be shown once. Where only a bound is given, the exact number is not on record here.

T1 sequence (P28482 whole entry): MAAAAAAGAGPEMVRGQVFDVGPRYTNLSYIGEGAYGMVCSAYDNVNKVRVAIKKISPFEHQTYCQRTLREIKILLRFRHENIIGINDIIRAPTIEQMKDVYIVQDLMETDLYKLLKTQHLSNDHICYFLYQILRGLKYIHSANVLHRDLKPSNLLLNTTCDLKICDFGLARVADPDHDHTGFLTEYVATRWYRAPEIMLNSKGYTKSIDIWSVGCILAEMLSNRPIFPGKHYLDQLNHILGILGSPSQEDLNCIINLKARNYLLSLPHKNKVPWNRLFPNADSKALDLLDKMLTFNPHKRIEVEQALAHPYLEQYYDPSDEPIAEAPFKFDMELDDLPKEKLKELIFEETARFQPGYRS
T2 sequence (Q12809 whole entry): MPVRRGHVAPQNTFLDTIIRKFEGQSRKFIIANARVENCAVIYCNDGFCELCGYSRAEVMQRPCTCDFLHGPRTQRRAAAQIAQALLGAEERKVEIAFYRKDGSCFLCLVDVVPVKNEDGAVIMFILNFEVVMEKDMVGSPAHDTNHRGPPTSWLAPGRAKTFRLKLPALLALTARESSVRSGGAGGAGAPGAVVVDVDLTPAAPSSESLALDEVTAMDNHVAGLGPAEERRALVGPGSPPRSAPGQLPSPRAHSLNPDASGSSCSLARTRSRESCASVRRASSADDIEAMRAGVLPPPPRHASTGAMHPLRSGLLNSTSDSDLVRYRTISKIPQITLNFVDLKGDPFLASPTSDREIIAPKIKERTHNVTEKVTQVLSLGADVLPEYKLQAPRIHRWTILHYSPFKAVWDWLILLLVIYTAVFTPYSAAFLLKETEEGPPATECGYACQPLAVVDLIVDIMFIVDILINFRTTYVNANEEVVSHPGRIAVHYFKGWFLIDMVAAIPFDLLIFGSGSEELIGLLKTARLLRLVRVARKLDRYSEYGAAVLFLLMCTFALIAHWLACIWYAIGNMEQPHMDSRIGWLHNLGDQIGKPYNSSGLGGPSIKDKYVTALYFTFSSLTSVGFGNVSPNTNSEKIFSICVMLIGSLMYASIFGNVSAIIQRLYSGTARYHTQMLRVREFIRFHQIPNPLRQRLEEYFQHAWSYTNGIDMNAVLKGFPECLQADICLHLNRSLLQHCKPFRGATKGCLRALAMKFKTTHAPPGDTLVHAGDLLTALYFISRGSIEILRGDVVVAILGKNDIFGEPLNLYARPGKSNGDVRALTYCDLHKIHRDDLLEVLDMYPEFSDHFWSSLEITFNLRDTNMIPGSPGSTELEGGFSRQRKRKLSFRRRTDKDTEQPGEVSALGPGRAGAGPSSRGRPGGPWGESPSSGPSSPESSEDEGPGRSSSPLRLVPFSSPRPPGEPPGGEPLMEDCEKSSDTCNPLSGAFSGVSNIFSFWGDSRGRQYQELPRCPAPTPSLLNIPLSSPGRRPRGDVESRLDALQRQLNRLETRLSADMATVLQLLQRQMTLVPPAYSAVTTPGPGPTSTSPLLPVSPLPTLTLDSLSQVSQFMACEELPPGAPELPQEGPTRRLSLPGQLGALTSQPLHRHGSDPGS
T3 sequence (P08684 whole entry): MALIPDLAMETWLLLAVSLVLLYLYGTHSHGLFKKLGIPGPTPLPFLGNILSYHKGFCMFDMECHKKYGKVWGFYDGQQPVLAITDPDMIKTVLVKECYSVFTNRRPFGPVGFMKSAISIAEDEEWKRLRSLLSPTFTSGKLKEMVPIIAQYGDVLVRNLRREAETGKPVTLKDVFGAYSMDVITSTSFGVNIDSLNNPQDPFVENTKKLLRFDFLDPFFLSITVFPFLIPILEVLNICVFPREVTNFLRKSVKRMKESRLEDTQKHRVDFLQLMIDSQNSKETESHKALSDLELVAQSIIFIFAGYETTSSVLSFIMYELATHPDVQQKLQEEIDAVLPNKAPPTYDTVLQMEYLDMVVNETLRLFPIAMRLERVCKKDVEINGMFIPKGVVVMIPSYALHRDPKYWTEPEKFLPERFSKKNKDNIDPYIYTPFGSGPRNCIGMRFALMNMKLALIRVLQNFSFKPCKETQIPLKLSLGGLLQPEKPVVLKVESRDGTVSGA

In the case of `CN(C)C[C@H](c1cccc(F)c1)n1ccc(-c2c[nH]c3ncc(N4CCOCC4)cc23)cc1=O` [Compound no1 (S), (S)-1-(2-(dimethylamino)-1-(3-fluorophenyl)ethyl)-4-(5-morpholino-1H-pyrrolo[2,3-b]pyridin-3-yl)pyridin-2(1H)-one], the results for the pIC50 in data set [1] and in data set [2] were 8.92 and 6.97, respectively. The “Kinase panel @500 nM hits > 50%” value in data set [3] is reported as 2/58. In addition, the “Kinase panel @500 nM hits > 80%” value in data set [3] is recorded as 1/58.

As to `CN(C)C[C@H](c1cccc(Cl)c1)n1ccc(-c2c[nH]c3ncc(N4CCOCC4)cc23)cc1=O` [Compound no2 (S), (S)-1-(1-(3-chlorophenyl)-2-(dimethylamino)ethyl)-4-(5-morpholino-1H-pyrrolo[2,3-b]pyridin-3-yl)pyridin-2(1H)-one], in data set [1], the pIC50 – broadly, the IC50 on a negative log10 scale, so that one unit is a factor of ten – was 8.68. Also, in data set [2], the pIC50 is 7.46. In data set [3], the “Kinase panel @500 nM hits > 50%” value is 10/58 and the “Kinase panel @500 nM hits > 80%” value is given as 1/58.

On to `CN(C)C[C@H](c1cc(Cl)cc(Cl)c1)n1ccc(-c2c[nH]c3ncc(N4CCOCC4)cc23)cc1=O` [Compound no3 (S), (S)-1-(1-(3,5-dichlorophenyl)-2-(dimethylamino)ethyl)-4-(5-morpholino-1H-pyrrolo[2,3-b]pyridin-3-yl)pyridin-2(1H)-one], for which the pIC50 in data set [1] was 8.49; in data set [2], 6.88. Besides, the “Kinase panel @500 nM hits > 50%” value in data set [3] is 6/58. Further, the “Kinase panel @500 nM hits > 80%” value in data set [3] was 1/58.

In turn, `CN(C)C[C@H](c1ccc(Cl)c(Cl)c1)n1ccc(-c2c[nH]c3ncc(N4CCOCC4)cc23)cc1=O` [Compound no4 (S), (S)-1-(1-(3,4-dichlorophenyl)-2-(dimethylamino)ethyl)-4-(5-morpholino-1H-pyrrolo[2,3-b]pyridin-3-yl)pyridin-2(1H)-one] showed a pIC50 in data set [1] of 8.51. In data set [2], this compound had a pIC50 of 7.14. Besides, in data set [3], the “Kinase panel @500 nM hits > 50%” value was 5/58 and the “Kinase panel @500 nM hits > 80%” value was 1/58.

On to `CN(C)C[C@H](c1cccc(Br)c1)n1ccc(-c2c[nH]c3ncc(N4CCOCC4)cc23)cc1=O` [Compound no5 (S), (S)-1-(1-(3-bromophenyl)-2-(dimethylamino)ethyl)-4-(5-morpholino-1H-pyrrolo[2,3-b]pyridin-3-yl)pyridin-2(1H)-one], for which the pIC50 in data set [1] is 8.35; in data set [2], 7.11; in data set [4], 4.69; in data set [5], 5.02. Also, the “Kinase panel @500 nM hits > 50%” value in data set [3] is on record as 7/58. Besides, the “Kinase panel @500 nM hits > 80%” value in data set [3] is 1/58. In addition, in data set [6] (20 mg/kg), the bioavailability (usually the share of a dose that reaches the circulation, judged against a reference dose that is usually intravenous) stood at 9.2%. The Cmax – broadly, the maximum level reached in the sampled fluid or tissue – in data set [6] is 1730 ng/mL and 3.3 µM. Besides, in data set [6], the half-life (commonly the time in which the quantity being followed falls by half) was 1.83 h.

`CN(C)C[C@H](c1ccc(F)c(Br)c1)n1ccc(-c2c[nH]c3ncc(N4CCOCC4)cc23)cc1=O` [Compound no7 (S), (S)-1-(1-(3-bromo-4-fluorophenyl)-2-(dimethylamino)ethyl)-4-(5-morpholino-1H-pyrrolo[2,3-b]pyridin-3-yl)pyridin-2(1H)-one]: the pIC50 in data set [1] was 8.39. In addition, the pIC50 in data set [2] is 7.28. Further, in data set [3], the “Kinase panel @500 nM hits > 50%” value is given as 4/58 and the “Kinase panel @500 nM hits > 80%” value is 1/58.

As to `CN(C)C[C@H](c1ccc(F)c(I)c1)n1ccc(-c2c[nH]c3ncc(N4CCOCC4)cc23)cc1=O` [Compound no8 (S), (S)-1-(2-(dimethylamino)-1-(4-fluoro-3-iodophenyl)ethyl)-4-(5-morpholino-1H-pyrrolo[2,3-b]pyridin-3-yl)pyridin-2(1H)-one], the pIC50 in data set [1] is 8.66; in data set [2], 7.19. Moreover, in data set [3], the “Kinase panel @500 nM hits > 50%” value is 7/58. Further, the “Kinase panel @500 nM hits > 80%” value in data set [3] is on record as 1/58.

Turning to `CN(C)C[C@H](c1ccc(F)c(F)c1)n1ccc(-c2c[nH]c3ncc(N4CCOCC4)cc23)cc1=O` [Compound no17 (S), (S)-1-(1-(3,4-difluorophenyl)-2-(dimethylamino)ethyl)-4-(5-morpholino-1H-pyrrolo[2,3-b]pyridin-3-yl)pyridin-2(1H)-one], the results for the pIC50 in data set [1] and in data set [2] were 8.57 and 6.99, respectively.

Consider `CN(C)C[C@H](c1cccc(Cl)c1)n1ccc(-c2c[nH]c3ncc(N4CCOCC4)c(F)c23)cc1=O` [Compound no22 (S), (S)-1-(1-(3-chlorophenyl)-2-(dimethylamino)ethyl)-4-(4-fluoro-5-morpholino-1H-pyrrolo[2,3-b]pyridin-3-yl)pyridin-2(1H)-one], for which the pIC50 in data set [1] is 8.40; in data set [2] it was 7.11.

For the compound `COCc1cc(Cl)cc([C@@H](CN(C)C)n2ccc(-c3c[nH]c4ncc(N5CCOCC5)cc34)cc2=O)c1` [Compound no23 (S), (S)-1-(1-(3-chloro-5-(methoxymethyl)phenyl)-2-(dimethylamino)ethyl)-4-(5-morpholino-1H-pyrrolo[2,3-b]pyridin-3-yl)pyridin-2(1H)-one], the pIC50 was 8.35 in data set [1] and 8.10 in data set [2].

As for “(S)-1-(2-amino-1-(3-chlorophenyl)ethyl)-4-(5-morpholino-1H-pyrrolo[2,3-b]pyridin-3-yl)pyridin-2(1H)-one [Comparative compound A (S), reference compound]”, in data set [3], the “Kinase panel @500 nM hits > 50%” value is listed as 26/58 and the “Kinase panel @500 nM hits > 80%” value is recorded as 15/58. In data set [7], the “Papp A-B” value is listed as < 10 10^−6 cm/s.
